{"source": "patent US8614223B2", "about": "“Pyrimidine hydroxy amide compounds as protein deacetylase inhibitors and methods of use thereof” (Acetylon Pharmaceuticals, Inc., priority 2010, dated 2013)", "key": {"HDAC1": {"biological_target": "HDAC1 (Homo sapiens (Human), UniProt Q13547)", "sequence (Q13547 whole entry)": "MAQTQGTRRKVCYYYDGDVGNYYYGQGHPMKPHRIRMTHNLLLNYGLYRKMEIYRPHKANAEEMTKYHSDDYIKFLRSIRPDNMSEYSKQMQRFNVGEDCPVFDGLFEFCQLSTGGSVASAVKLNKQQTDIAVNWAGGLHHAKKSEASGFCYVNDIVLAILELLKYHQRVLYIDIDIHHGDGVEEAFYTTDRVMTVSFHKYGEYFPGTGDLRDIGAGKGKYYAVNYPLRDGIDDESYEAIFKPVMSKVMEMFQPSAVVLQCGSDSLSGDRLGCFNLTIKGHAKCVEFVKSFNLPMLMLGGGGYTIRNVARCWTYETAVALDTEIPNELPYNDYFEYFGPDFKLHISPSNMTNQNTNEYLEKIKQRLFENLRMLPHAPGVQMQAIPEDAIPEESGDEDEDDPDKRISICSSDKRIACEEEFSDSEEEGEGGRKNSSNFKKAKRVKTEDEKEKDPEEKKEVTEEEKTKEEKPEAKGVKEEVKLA", "assay": "HDAC enzyme assay, HDAC1", "conditions": "for HDAC1 fold over HDAC6 IC50 (selectivity for HDAC6): ratio HDAC1/HDAC6"}, "HDAC3": {"biological_target": "HDAC3 (Homo sapiens (Human), UniProt O15379)", "sequence (O15379 whole entry)": "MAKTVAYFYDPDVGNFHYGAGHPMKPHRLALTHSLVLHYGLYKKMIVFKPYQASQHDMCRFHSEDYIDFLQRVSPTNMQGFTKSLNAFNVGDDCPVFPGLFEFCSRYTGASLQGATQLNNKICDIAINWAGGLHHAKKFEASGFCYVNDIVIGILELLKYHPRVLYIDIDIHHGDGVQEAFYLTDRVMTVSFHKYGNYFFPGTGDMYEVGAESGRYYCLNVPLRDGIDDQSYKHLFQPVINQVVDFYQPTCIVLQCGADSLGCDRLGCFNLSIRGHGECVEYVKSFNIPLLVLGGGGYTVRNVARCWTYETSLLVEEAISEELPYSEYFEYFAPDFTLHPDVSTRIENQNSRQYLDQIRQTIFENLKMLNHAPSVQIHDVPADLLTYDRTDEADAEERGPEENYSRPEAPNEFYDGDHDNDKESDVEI", "sequence (Q9Y618 395-489 partner)": "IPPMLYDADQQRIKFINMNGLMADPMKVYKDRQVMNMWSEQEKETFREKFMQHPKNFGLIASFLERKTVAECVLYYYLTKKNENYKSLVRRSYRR", "assay": "HDAC enzyme assay, HDAC3", "conditions": "for HDAC3 fold over HDAC6 IC50 (selectivity for HDAC6): ratio HDAC3/HDAC6"}, "HDAC2": {"biological_target": "HDAC2 (Homo sapiens (Human), UniProt Q92769)", "sequence (Q92769 whole entry)": "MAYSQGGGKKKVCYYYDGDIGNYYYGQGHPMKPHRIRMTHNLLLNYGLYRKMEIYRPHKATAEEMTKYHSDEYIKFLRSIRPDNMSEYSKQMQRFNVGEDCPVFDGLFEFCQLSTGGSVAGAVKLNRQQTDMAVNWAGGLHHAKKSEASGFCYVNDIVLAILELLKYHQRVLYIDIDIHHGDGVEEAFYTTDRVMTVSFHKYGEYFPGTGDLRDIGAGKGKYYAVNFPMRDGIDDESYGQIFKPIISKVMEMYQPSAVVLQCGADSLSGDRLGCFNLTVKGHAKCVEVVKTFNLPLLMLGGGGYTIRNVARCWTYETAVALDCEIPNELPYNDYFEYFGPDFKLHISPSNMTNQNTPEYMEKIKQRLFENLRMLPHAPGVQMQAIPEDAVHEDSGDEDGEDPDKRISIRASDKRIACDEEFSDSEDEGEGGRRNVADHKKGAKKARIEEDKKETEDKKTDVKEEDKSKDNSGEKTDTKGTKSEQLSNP", "assay": "HDAC enzyme assay, HDAC2", "conditions": "for HDAC2 fold over HDAC6 IC50 (selectivity for HDAC6): ratio HDAC2/HDAC6"}, "HDAC6 [1]": {"biological_target": "T1, HDAC6 (Homo sapiens (Human), UniProt Q9UBN7)", "T1 sequence (Q9UBN7 whole entry)": "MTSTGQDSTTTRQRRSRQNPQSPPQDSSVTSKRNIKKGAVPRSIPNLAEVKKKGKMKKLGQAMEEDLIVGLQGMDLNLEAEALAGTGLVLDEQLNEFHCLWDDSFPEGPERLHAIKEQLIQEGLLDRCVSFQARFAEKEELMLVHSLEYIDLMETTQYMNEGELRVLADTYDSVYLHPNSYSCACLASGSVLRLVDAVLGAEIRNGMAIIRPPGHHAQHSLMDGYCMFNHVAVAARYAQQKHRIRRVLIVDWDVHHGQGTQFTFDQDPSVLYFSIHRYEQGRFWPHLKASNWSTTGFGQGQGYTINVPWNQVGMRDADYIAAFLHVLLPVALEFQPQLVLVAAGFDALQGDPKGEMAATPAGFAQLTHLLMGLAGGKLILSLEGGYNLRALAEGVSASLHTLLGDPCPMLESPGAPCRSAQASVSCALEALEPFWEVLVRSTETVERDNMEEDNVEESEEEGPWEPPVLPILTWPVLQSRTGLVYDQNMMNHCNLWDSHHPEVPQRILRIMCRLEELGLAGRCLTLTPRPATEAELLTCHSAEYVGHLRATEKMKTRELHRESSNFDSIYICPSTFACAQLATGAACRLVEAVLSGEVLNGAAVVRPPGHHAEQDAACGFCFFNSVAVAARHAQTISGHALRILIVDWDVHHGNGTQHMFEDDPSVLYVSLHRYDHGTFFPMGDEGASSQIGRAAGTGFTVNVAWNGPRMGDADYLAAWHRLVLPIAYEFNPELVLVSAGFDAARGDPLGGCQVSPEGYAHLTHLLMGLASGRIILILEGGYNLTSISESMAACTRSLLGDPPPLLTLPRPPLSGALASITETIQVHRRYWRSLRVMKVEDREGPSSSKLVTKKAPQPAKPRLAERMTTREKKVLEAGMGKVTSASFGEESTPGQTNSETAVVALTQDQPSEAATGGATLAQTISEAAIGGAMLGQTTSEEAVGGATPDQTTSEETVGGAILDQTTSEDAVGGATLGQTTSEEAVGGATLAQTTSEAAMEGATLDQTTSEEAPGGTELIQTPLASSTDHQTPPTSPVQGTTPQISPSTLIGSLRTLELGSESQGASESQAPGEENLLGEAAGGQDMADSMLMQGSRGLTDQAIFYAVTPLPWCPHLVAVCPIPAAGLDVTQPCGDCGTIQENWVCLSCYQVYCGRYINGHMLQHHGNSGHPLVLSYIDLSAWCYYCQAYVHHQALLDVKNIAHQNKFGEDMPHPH", "assay": "biochemical"}, "HDAC6 [2]": {"biological_target": "T1, HDAC6", "conditions": "read-out: HDAC6 IC50"}, "refractory relapsed MM": {"test_system": "refractory relapsed MM", "conditions": "202 patients with refractory relapsed MM; cited from earlier work"}}, "note": "Read-outs that look alike come from different tables or passages of the source."}
{"smiles": "COc1ccc(C2(Nc3ncc(C(=O)NO)cn3)CC2)cc1", "note": "[Compound 97]", "values": [{"measurement": "IC50", "setting": "HDAC1", "result": 19, "unit": "nM"}, {"measurement": "HDAC1 fold over HDAC6 IC50 (selectivity for HDAC6)", "setting": "HDAC1", "result": "(8.3x)"}, {"measurement": "IC50", "setting": "HDAC3", "result": 37, "unit": "nM"}, {"measurement": "HDAC3 fold over HDAC6 IC50 (selectivity for HDAC6)", "setting": "HDAC3", "result": "(16.4x)"}, {"measurement": "IC50", "setting": "HDAC2", "result": 28, "unit": "nM"}, {"measurement": "HDAC2 fold over HDAC6 IC50 (selectivity for HDAC6)", "setting": "HDAC2", "result": "(12.1x)"}, {"measurement": "IC50", "setting": "HDAC6 [1]", "result": 2, "unit": "nM"}]}
{"smiles": "O=C(NO)c1cnc(NC2(c3cccs3)CCCCC2)nc1", "note": "[Compound 154]", "values": [{"measurement": "HDAC1 fold over HDAC6 IC50 (selectivity for HDAC6)", "setting": "HDAC1", "result": "(263.9x)"}, {"measurement": "IC50", "setting": "HDAC1; read-out: HDAC1 IC50", "result": 1370, "unit": "nM"}, {"measurement": "HDAC3 fold over HDAC6 IC50 (selectivity for HDAC6)", "setting": "HDAC3", "result": "(647.4x)"}, {"measurement": "IC50", "setting": "HDAC3; read-out: HDAC3 IC50", "result": 3360, "unit": "nM"}, {"measurement": "HDAC2 fold over HDAC6 IC50 (selectivity for HDAC6)", "setting": "HDAC2", "result": "(307.8x)"}, {"measurement": "IC50", "setting": "HDAC2; read-out: HDAC2 IC50", "result": 1600, "unit": "nM"}, {"measurement": "IC50", "setting": "HDAC6 [2]", "result": 5, "unit": "nM"}]}
{"smiles": "O=C(NO)c1cnc(NC2(c3cc(F)cc(F)c3)CCOCC2)nc1", "note": "[Compound 155]", "values": [{"measurement": "HDAC1 fold over HDAC6 IC50 (selectivity for HDAC6)", "setting": "HDAC1", "result": "(37.9x)"}, {"measurement": "IC50", "setting": "HDAC1; read-out: HDAC1 IC50", "result": 262, "unit": "nM"}, {"measurement": "HDAC3 fold over HDAC6 IC50 (selectivity for HDAC6)", "setting": "HDAC3", "result": "(176x)"}, {"measurement": "IC50", "setting": "HDAC3; read-out: HDAC3 IC50", "result": 1220, "unit": "nM"}, {"measurement": "HDAC2 fold over HDAC6 IC50 (selectivity for HDAC6)", "setting": "HDAC2", "result": "(34x)"}, {"measurement": "IC50", "setting": "HDAC2; read-out: HDAC2 IC50", "result": 236, "unit": "nM"}, {"measurement": "IC50", "setting": "HDAC6 [2]", "result": 7, "unit": "nM"}]}
{"smiles": "CC(C)C[C@H](NC(=O)[C@H](Cc1ccccc1)NC(=O)c1cnccn1)B(O)O", "note": "[bortezomib]", "values": [{"measurement": "complete and near complete responses", "setting": "refractory relapsed MM", "result": 10, "unit": "%"}, {"measurement": "patients did not respond", "setting": "refractory relapsed MM", "result": 65, "unit": "%"}, {"measurement": "responses", "setting": "refractory relapsed MM", "result": 35, "unit": "%"}]}
